Source: patent US20100278787A1, “CARDIOMYOCYTE-LIKE CELL CLUSTERS DERIVED FROM HBS CELLS” (Cellartis AB, priority 2007, published 2010)

Key:
[1] = test system: spontaneously beating CMLC; test: Visually registered contraction rate of spontaneously beating CMLC; assay type: cell-based, human; details: 5 μM
Procedure: FIG. 28. The effect of Zatebradine on the beating frequency of contracting CMLC derived from hBS cells. […] The change in beating frequency was calculated by visually registering the contraction rate before and after Zatebradine administration. Values are expressed as beats per minute±SEM, n=32, ***=p<0.001. Statistical significance was calculated using paired t-test. […] The mRNA expression of HCN4 and Troponin T2 was measured using real-time RT quantitative PCR and related to the expression of the endogenous control CREBBP. Values are expressed as relative gene expression as compared to a reference sample set to 100% (n=32). Statistical analysis was performed using linear regression analysis.
CMLC were derived from undifferentiated hBS cells essentially as described in Example 1 using cell line SA002. Zatebradine is a substance known to block so called funny channels, e.i. hyperpolarization-activated, cyclic nucleotide-gated (HCN) channels 1-4, which are involved in the regulation of cardiomyocyte contraction and cardiac rate. In order to investigate the effect of Zatebradine on CMLC derived from hBS cells and to correlate this effect to age and gene expression, Zatebradine was administered at a concentration of 5 μM to 32 spontaneously beating clusters of different ages. […] Gene expression was quantified using real-time RT quantitative PCR. […]

[2] = test system: CMLC clusters; test: Transmembrane action potential (TAP) microelectrode recordings in beating CMLC; assay type: cell-based, human
Procedure: Transmembrane action potentials (TAP) were recorded by using a microelectrode filled with 3 M KCl (resistance 10 to 20 MΩ) connected via an Ag/AgCl junction to a high impedance amplifier (Intracellular Electrometer IE-210, Warner Instrument Corporation). Sharp microelectrodes were prepared using a glass, and a micromanipulator was used to lower the electrode into the bath and enter the cluster. The same impalement was kept for as long as possible. […] Steady-state recordings of action potentials at spontaneous frequency or during electric stimulation of 1-4 Hz were made. All calculations were made on the average of 10 (consecutive) action potentials. The bath was continuously perfused with Tyrode's solution consisting of (in mmol/L) 130 NaCl, 4 KCl, 0.5 MgSO4.7H20, 1.8 NaH2PO4xH2O, 18 NaHCO3, 5.5 glucose, 1.8 CaCl2 and kept at 37° C.
Electrical stimulation of the CMLC was done using field stimulation by means of a mobile electrode.
Change in APD was calculated and used to determine prolongation and assess triangularization.
To investigate the role of the funny current (If) in spontaneously contracting CMLC, 10 μM zatebradine was administered.

[3] = test system: hBS cells (SA002); test: Yield of beating CMLC from differentiating hBS cells, counted visually; assay type: cell-based, human; details: for Yield of beating CMLC compared to control cultures not receiving additional factors: 5 μM pre-plating in addition to Activin A 10 ng/ml and bFGF 12 ng/ml, day 7 after plating
Procedure: Spontaneously contracting cells were derived from undifferentiated hBS cells cultured on MEF cells (Heins et al 2004 Stem Cells). The cell lines used for this experiment could be the hBS cell line SA002, SA121, SA001, SA002.5, SA461 (Cellartis AB, Goteborg, Sweden, http://www.cellartis.com) and they can be propagated as described Heins et al. 2004. These cell lines are listed in the NIH stem cell registry and the UK Stem Cell bank. The hBS cells were detached from the feeder layer by incubation with collagenase IV (200 U/ml), for 10-15 minutes at 37° C. The cell suspension was transferred to a 15 ml tube, and after the cells had sedimented, the supernatant was removed. The colonies were resuspended in Knock Out DMEM supplemented with 20% FBS, 1% penicillin-streptomycin, 1% Glutamax, 0.5 mmol/l β-mercaptoethanol and 1% non-essential amino acids (all from Invitrogen, Carlsbad, Calif.) and dissociated mechanically into small aggregates of undifferentiated cells (0.2-0.4 mm) using a pipette. This cell suspension was distributed (200 μl/well) into a 96-well v-bottom plate (Corning Incorporated, NY, USA) at a concentration of approximately 4-6 colonies per well and centrifuged for 5 min at 400×g. The plate was then incubated at 37° C. for 3-8 days. The 3D structures that formed were then transferred to gelatine coated dishes containing culture medium (same as above). After a couple of days (normally 1-4) of culture, spontaneously contracting areas with cluster of contracting cells (CMLC) occurred and could be visually identified using a light microscope. Medium was changed every second to third day. New spontaneously beating areas continued to appear for up to 20 days post-plating. The clusters are isolated by mechanical dissection under visual inspection using a light microscope from the 3D-structures and subjected to further characterization. […] These were then manually isolated from the surrounding cells and plated onto laminin coated glass. After three days in culture, the clusters were fixed and stained for nuclei and the protein cardiac troponin 1, which is known to be specific for cardiac tissue. These clusters were then examined with confocal microscopy.
CMLC were derived from undifferentiated hBS cells (cell line SA002, LOTAL002, passage 21, 22, 44 and 51) essentially as described in Example 1. […]
The number of contracting CMLC was visually determined at day 6 or 7 after plating of formed 3D structures. […] The effect of the treatment on beating area characteristics was determined in terms of distribution in beating frequency, length, width, calculated area and structure in two experiments; one using plating medium with 20% FBS and one with plating medium containing 2% FBS. […]

[4] = test system: hERG channel in CMLC
[5] = test system: contracting clusters of cells; test: Functional receptors: contractile activity of contracting areas after pharmacological agents (method of Norström et al. 2006); assay type: cell-based, human; details: agents administered to contracting areas; method and Table 1 of Norström et al. 2006

COc1ccc(CCN(C)CCCN2CCc3cc(OC)c(OC)cc3CC2=O)cc1OC [Zatebradine]
Beating of some clusters [1]: completely blocked
Decrease of the beating frequency of CMLC, on average ([1]; 32 spontaneously beating clusters of different ages): about 50%
Effect on action potential duration ([2]; 10 μM Zatebradine, FIG. 21): increased duration
Effect on beating frequency ([2]; 10 μM Zatebradine, FIG. 21): slowed beating frequency

LIF: protein growth factor supplemented at 1000 U/ml post-plating
Yield of beating CMLC ([3]; Activin A and bFGF pre-plating, LIF 1000 U/ml for 4 days post-plating, counted day 7 and day 14): further increased the generation of beating CMLC
Improvement of yield compared to controls that only receive medium ([3]; medium containing Activin A and/or bFGF supplemented with LIF post-plating, FIG. 14): ~2 fold

COc1ccc(CCN2CCC(Nc3nc4ccccc4n3Cc3ccc(F)cc3)CC2)cc1 [Astemizol]
Delayed repolarisation of the cardiac field potentials ([4]; cumulative 0, 100 pM, 1 nM, 10 nM, 100 nM, 1000 nM): selective block and sustained prolongation of the repolarizing component at low nanomolar concentrations
Delayed repolarization of the cardiac field potential ([4]; hES-CMC cluster on MEA, cumulative 0, 1 nM, 10 nM, 100 nM, 1 μM, 10 μM, FIG. 30): selective block and sustained prolongation of the repolarizing component at nanomolar concentrations

Fc1ccc(-c2nc3n(c2-c2ccncc2)CCS3)cc1 [SKF-86002]
Yield of beating CMLC compared to control cultures not receiving additional factors [3]: ~3 times

Cc1cccc(CCN2CCC(C(=O)c3ccc(NS(C)(=O)=O)cc3)CC2)n1 [E-4031]
Action potential prolongation ([2]; 0.5-1 μM E-4031, all CMLC phenotypes): concentration dependent action potential prolongation in all CMLC phenotypes
Average change in percent of APD90 ([2]; atrial-like CMLC, 0.5 μM E-4031, spontaneous f): 27.27 ± 7.61 (7) %
Average change in percent of APD90 ([2]; atrial-like CMLC, 1 μM E-4031, spontaneous f): 70.08 ± 25.91 (2) %
Average change in percent of APD90 ([2]; nodal-like CMLC, 0.5 μM E-4031, spontaneous f): 43.16 ± 21.00 (4) %
Average change in percent of APD90 ([2]; ventricle-like CMLC, 0.5 μM E-4031, 1 Hz): 34.89 ± 9.83 (4) %
Average change in percent of APD90 ([2]; ventricle-like CMLC, 0.5 μM E-4031, 2 Hz): 27.92 ± 9.23 (2) %
Average change in percent of APD90 ([2]; ventricle-like CMLC, 0.5 μM E-4031, spontaneous f): 16.67 ± 10.64 (5) %
Average change in percent of APD90 ([2]; ventricle-like CMLC, 1 μM E-4031, 1 Hz): 59.33 ± 31.28 (2) %
Average change in percent of APD90 ([2]; ventricle-like CMLC, 1 μM E-4031, 2 Hz): 38.14 ± 36.85 (3) %

CC(COc1ccccc1)N(CCCl)Cc1ccccc1 (centres unmarked) [phenoxybenzamine]
Effect on contractile activity / contraction frequency [5]: reduce the contraction frequency

NC[C@H](O)c1ccc(O)c(O)c1 [Noradrenaline]
Effect on contractile activity / contraction frequency [5]: stimulates contractile activity normally in a concentration-response manner

COc1cc(N)c(Cl)cc1C(=O)NC1CCN(CCCOc2ccc(F)cc2)CC1OC (centres unmarked) [Cisapride]
Field action potential duration (indicator of QT prolongation) ([4]; increasing drug concentrations, FIGS. 5c and 5d): dose dependent prolongation of the action potential

Cn1cc(C2=C(c3ccc(Cl)cc3Cl)C(=O)NC2=O)c2ccccc21 [SB 216763]
Yield of beating CMLC compared to control cultures not receiving additional factors [3]: ~3 times

CNC[C@H](O)c1cccc(O)c1 [Phenylephrine]
Effect on contractile activity / contraction frequency [5]: stimulated in a dose-dependent manner

CC(C)NCC(O)COc1ccc(CC(N)=O)cc1 (centres unmarked) [atenolol]
Effect on contractile activity / contraction frequency [5]: stimulatory effect is reduced within minutes

CNCC(O)c1ccc(O)c(O)c1 (centres unmarked) [Adrenaline]
Effect on contractile activity / contraction frequency [5]: stimulatory effect is registered within minutes

CC(CCc1ccccc1)NCC(O)c1ccc(O)c(C(N)=O)c1 (centres unmarked) [labetolol]
Effect on contractile activity / contraction frequency [5]: reduction in the stimulation of contraction frequency exerted by adrenaline
